Publication PMC4549706, “Rational Design of Highly Potent and Slow-Binding Cytochrome bc1 Inhibitor as Fungicide by Computational Substitution Optimization” (Scientific Reports, 2015)
Like-named read-outs stand apart in the source and are kept apart here.

How the values were obtained:
[1] = target: T1, porcine succinate-cytochrome c reductase (SCR, the mixture of complex II and bc1) (Sus scrofa, UniProt P24964); assay: SCR activity, succinate-cytochrome c system (Assay 1); type: biochemical; conditions: for ∆∆Gexp: Table S1, experimental binding free energy change vs compound 1; for ΔΔGexp: experimental binding free energy change relative to compound 1
T1 construct: T h e S C R f r o m p o r c i n e h e a r t; from tissue; host or cells: porcine heart
Procedure: (§1) Figure 4 Slow-binding inhibition mechanism. (A,B) Effect of various concentrations of cytochrome c and compound 18 on the inhibition of SCR activity. Each reaction mixture contains 100 mM, pH 7.4), EDTA (0.3 mM), succinate (20 mM), SCR (0.1 nM), and indicated amounts of cytochrome c and compound 18. The assays were performed in the presence of (A) 18 (35 nM) and a specified amount of cytochrome c (1, 4 μM; 2, 8 μM; 3, 20 μM; and 4, 48 μM) or (B) cytochrome c (60 μM) and various concentrations of compound 18 (1, 0 nM; 2, 15 nM; 3, 20 nM; 4, 30 nM; 5, 40 nM; and 6, 50 nM). Experimental data are shown as coloured dots and theoretical values are represented as black solid lines. Insets: plots of Kobs against concentration of (A) cytochrome c and (B) compound 18. […] Each reaction mixture contains 100 mM, pH 6.5), EDTA (2 mM), lauryl maltoside (750 μM), oxidised cytochrome c (100 μM), SCR (0.05 nM), and indicated amounts of DBH2 and compound 18. Two representative sets of inhibitory assays were performed in the presence of (C) DBH2 (20 μM) and a specified amount of compound 18 (1, 20 nM; 2, 40 nM; 3, 60 nM; 4, 80 nM), or (D) DBH2 (120 μM) and a specified amount of compound 18 (1, 40 nM; 2, 80 nM; 3, 120 nM; 4, 180 nM). Insets: plots of Kobs against concentration of compound 18. (E) Plot of the apparent rate constant A against concentration of DBH2. Inset: Plot of 1/A against concentration of DBH2. (F) Plot of the apparent rate constant B against concentration of DBH2.
(§2) The porcine succinate-cytochrome c reductase (SCR, the mixture of complex II and bc1) was prepared essentially according to the previously reported method. The enzymatic activities of SCR, complex II, and bc1 complex were analyzed in respective reaction mixtures as reported previously. Kinetic analyses for the inhibition mechanism were performed as previously described. […]
(§3) inhibitory kinetics study of bc1 inhibitors 8. […]
(§4) synthesized compounds against bc1 complex were examined by SCR. As previously described 9, the combined activity of SCR can be determined by using succinate and cytochrome c as substrates (Assay 1). We also measured the activity of complex II by using succinate and 2,6-dichloroindophenol (DCIP) as substrates (Assay 2), or the activity of bc1 complex by using decylubiquinol (DBH2) and cytochrome c as substrates (Assay 3). […]
redA 10, was used to represent the enzyme concentration. The three redox reactions used in this study were summarized as follows.
Assay 1: succinate + cytochrome c3+ S C R fumarate + cytochrome c2+
Assay 2: succinate + DCIP complex II fumarate + DCIPH 2
Assay 3: DBH 2 + cytochrome c3+ bc1 complex DB + cytochrome c2+
All assays were performed at 23 °C. The enzymatic activity of SCR (Assay 1) was carried out in 1.8 mL of reaction mixture containing 100 mM PBS (pH 7.4), 0.3 mM EDTA, and indicated concentrations of succinate and oxidized cytochrome c (Sigma-Aldrich). The activity of succinate-ubiquinone reductase (complex II, Assay 2) was determined in essentially the same reaction mixture, except for the replacement of cytochrome c with DCIP (Alfa Aesar). […] DBH 2 was prepared through reduction of decylubiquinone by dithionite (Sigma-Aldrich) as previously described 11,12. The nonionic detergent LM was used to decrease the interfering non-enzymatic activity though it slightly […]

[2] = test system: Sphaerotheca fuliginea (Schlecht.) Poll.; assay: In vivo fungus growth inhibitory rate at 200 mg/L, powdery mildew
Text: Based on the above in vitro study, compounds with nanomolar and subnanomolar Ki values were selected from the total 21 newly synthezised compounds for further studies. Pesticide likeness, defined as a complex balance of various physicochemical properties and structure features, can evaluate whether a molecule is similar to the known pesticides. After the filtration of pesticide likeness, seven compounds were kept to adhere to our previously defined rules for pesticide-likeness including molecular weight (MW) ≤ 435 Da, ClogP ≤ 6, number of H-bond acceptors (HBA) ≤ 6, number of H-bond donors (HBD) ≤ 2, number of rotatable bonds (ROB) ≤ 9, and number of aromatic bonds (ARB) ≤ 17 (Table 1)[24]. […] Therefore, compound 18 was recognized as lead compound for subsequent studies.
(§5) [a] Compounds are named as “series number-site number plus substitution group number” a: -F, b: -Cl, c:
(§6) -Br, d: -NO2, e: -CH3, f: -CF3, g: -OCH3, h: -OH, i: -NH2, j: -COOH.
(§7) [b] Substitution number and group.
(§8) [c] CH is “series 1” and N is “series 2”. […]
(§9) Table S2 Fungus growth inhibitory rate of target compounds (200 mg/L).
(§10) Comp. No. R X Sphaerotheca fuliginea Pseudoperonospora cubensis

[3] = test system: Pseudoperonospora cubensis (Berk. et Curt.); assay: In vivo fungus growth inhibitory rate at 200 mg/L, downy mildew
Procedure: as §5, §6, §7, §8, §9, §10

bc1 complex = target: T2, bc1 complex (Sus scrofa, UniProt P24964); assay: bc1 complex activity, DBH2-cytochrome c system (Assay 3); type: biochemical, porcine
T2 construct: T h e S C R f r o m p o r c i n e h e a r t; from tissue; host or cells: porcine heart
Procedure: Figure 3 Inhibitory kinetics of bc1 complex. (A) Chemical structures of AZ (azoxystrobin) and its analogues, compound 1 and compound 18. These compounds have a common pharmacophore structure: methoxyacrylate (MOA). […] Each reaction mixture contains phosphate buffered saline (PBS; 100 mM, pH 6.5), ethylenediaminetetraacetic acid (EDTA; 2 mM), lauryl maltoside (750 μM), oxidised cytochrome c (100 μM), SCR (0.05 nM), DBH2 (20–120 μM) and a specified amount of AZ (1, 0 nM; 2, 500 nM; 3, 1000 nM; 4, 2000 nM; 5, 3000 nM; and 6, 5000 nM). (C) Compound 1 is non-competitive with respect to cytochrome c. The reaction mixture contains 100 mM, pH 7.4), EDTA (0.3 mM), succinate (20 mM), SCR (0.1 nM), cytochrome c (1.13–15.6 μM), and a series of concentrations of compound 1 (1, 0 nM; 2, 10 nM; 3, 20 nM; 4, 40 nM; and 5, 60 nM). (D) Compound 1 is competitive with respect to DBH2. Each reaction mixture contains 100 mM, pH 6.5), EDTA (2 mM), lauryl maltoside (750 μM), oxidised cytochrome c (100 μM), SCR (0.05 nM), DBH2 (20–120 μM) and a specified amount of compound 1 (1, 0 nM; 2, 50 nM; 3, 100 nM; 4, 200 nM; 5, 300 nM; and 6, 500 nM).
as §1, §2, §3, §4
redA 10, was used to represent the enzyme concentration. The three redox reactions used in this study were summarized as follows. […]

[4] = Table S1, inhibition constant with bc1 complex, read-out: Ki

T1 sequence (P24964 whole entry, one chain of several): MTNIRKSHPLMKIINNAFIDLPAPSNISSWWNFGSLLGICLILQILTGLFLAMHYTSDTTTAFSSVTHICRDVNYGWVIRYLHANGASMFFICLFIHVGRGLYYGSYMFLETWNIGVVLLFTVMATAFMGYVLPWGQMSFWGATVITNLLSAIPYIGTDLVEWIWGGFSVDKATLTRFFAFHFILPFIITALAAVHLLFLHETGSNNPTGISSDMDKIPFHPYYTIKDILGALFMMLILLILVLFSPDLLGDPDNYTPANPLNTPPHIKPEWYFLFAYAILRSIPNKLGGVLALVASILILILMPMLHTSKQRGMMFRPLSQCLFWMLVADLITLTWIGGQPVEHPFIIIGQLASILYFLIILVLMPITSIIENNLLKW
T2 sequence (P24964 whole entry, one chain of several): as above

Compound | ∆∆Gexp [1] [kcal/mol] | Ki [1, 4] [nM] | Ki [1] [nM] | ΔΔGexp [1] [kcal/mol] | further results
CO/N=C(/C(=O)OC)c1ccccc1CSc1nc2cc(F)ccc2s1 [Compound 52] | -0.28 | 19.3 ± 1.32 | – | – | –
CO/N=C(/C(=O)OC)c1ccccc1CSc1nc2c(F)cccc2s1 [Compound 42] | 0.97 | 160 ± 1.1 | – | – | –
CO/N=C(/C(=O)OC)c1ccccc1CSc1nc2c(Cl)cccc2s1 [Compound 43] | 0.77 | 114 ± 2.25 | – | – | –
CO/C=C(/C(=O)OC)c1ccccc1CSc1nc2c(F)cccc2s1 [Compound 2] | 0.09 | 35.9 ± 1.24 | – | – | –
CO/N=C(/C(=O)OC)c1ccccc1CSc1nc2ccc(Cl)cc2s1 [Compound 63] | -0.71 | 9.37 ± 1.24 | – | – | –
CO/C=C(/C(=O)OC)c1ccccc1CSc1nc2c(Cl)cccc2s1 [Compound 3] | 0.47 | 68.5 ± 1.21 | – | – | –
CO/N=C(/C(=O)OC)c1ccccc1CSc1nc2ccc(C)cc2s1 [Compound 66] | -0.57 | 11.9 ± 1.08 | – | – | –
CO/C=C(/C(=O)OC)c1ccccc1CSc1nc2cc(Cl)ccc2s1 [Compound 13] | -2.26 | – | 0.69 ± 0.06 | -2.26 | –
CO/C=C(/C(=O)OC)c1ccccc1CSc1nc2cc(F)ccc2s1 [Compound 12] | -1.58 | – | 2.15 ± 0.23 | -1.58 | Fungus growth inhibitory rate, Sphaerotheca fuliginea [2]: 99%; Fungus growth inhibitory rate, Pseudoperonospora cubensis [3]: 90%
CO/N=C(/C(=O)OC)c1ccccc1CSc1nc2cc([N+](=O)[O-])ccc2s1 [Compound 55] | -2.00 | – | 1.07 ± 0.12 | -2.00 | –
CO/C=C(/C(=O)OC)c1ccccc1CSc1nc2ccc(C)cc2s1 [Compound 26] | -1.96 | – | 1.15 ± 0.05 | -1.96 | Fungus growth inhibitory rate, Sphaerotheca fuliginea [2]: 81%; Fungus growth inhibitory rate, Pseudoperonospora cubensis [3]: 97%
CO/C=C(/C(=O)OC)c1ccccc1CSc1nc2ccc(C(F)(F)F)cc2s1 [Compound 27] | -2.16 | – | 0.81 ± 0.03 | -2.16 | –
CO/C=C(/C(=O)OC)c1ccccc1CSc1nc2cc([N+](=O)[O-])ccc2s1 [Compound 15] | -2.60 | – | 0.39 ± 0.02 | -2.60 | –
CO/N=C(/C(=O)OC)c1ccccc1CSc1nc2ccc([N+](=O)[O-])cc2s1 [Compound 65] | -0.08 | 27.3 ± 1.27 | – | – | –
CO/C=C(/C(=O)OC)c1ccccc1CSc1nc2ccc(F)cc2s1 [Compound 22] | -1.22 | – | 3.97 ± 0.27 | -1.22 | –
CO/C=C(/C(=O)OC)c1ccccc1CSc1nc2ccc(Br)cc2s1 [Compound 24] | -1.96 | – | 1.15 ± 0.4 | -1.96 | –
CO/N=C(/C(=O)OC)c1ccccc1CSc1nc2cc(Cl)ccc2s1 [Compound 53] | -1.42 | – | 2.84 ± 0.03 | -1.42 | –
CO/N=C(/C(=O)OC)c1ccccc1CSc1nc2ccc(F)cc2s1 [Compound 62] | 0.55 | 78.3 ± 1.37 | – | – | –
CO/C=C(/C(=O)OC)c1ccccc1CSc1nc2ccc(Cl)cc2s1 [Compound 23] | -1.44 | – | 2.75 ± 0.01 | -1.44 | –
CO/C=C(/C(=O)OC)c1ccccc1CSc1nc2ccccc2s1 [Compound 1, E-Methyl 2-(2-((benzo-thiazol-2-ylthio)methyl)phenyl)-3-methoxyacrylate] | 0.00 | – | 31.1 ± 0.9 | 0.00 | Ki (bc1 complex): 96.5 ± 5.6 nM; inhibition type with respect to DBH2 (bc1 complex; Assay 3, varied DBH2): competitive; Ki in DBH2-cytochrome c system relative to Ki in succinate-cytochrome c system (bc1 complex; Assay 3 vs Assay 1): approximately 3 fold; melting point: 84 to 86 °C; inhibition type with respect to cytochrome c ([1]; Assay 1, varied cytochrome c): non-competitive
CO/N=C(/C(=O)OC)c1ccccc1CSc1nc2ccc(Br)cc2s1 [Compound 64] | -1.31 | – | 3.44 ± 0.03 | -1.31 | –
